# Assay results published in PubChem BioAssay AID1259407 (Chemical Carcinogenesis Research Information System (CCRIS), 2018).
# The source made the active and inactive calls. How the calls were made is not given here.
# System: CCRIS mutagenicity, Ames/micronucleus/aberration tests
# Assay: CCRIS mutagenicity studies
# [1] = Test System: AMES SALMONELLA TYPHIMURIUM, Strain/Indicator: TA98, Metabolic Activation: NONE, Method: PREINCUBATION
# [2] = Test System: AMES SALMONELLA TYPHIMURIUM, Strain/Indicator: TA100, Metabolic Activation: NONE, Method: PREINCUBATION
# [3] = Test System: AMES SALMONELLA TYPHIMURIUM, Strain/Indicator: TA1535, Metabolic Activation: NONE, Method: PREINCUBATION
# [4] = Test System: AMES SALMONELLA TYPHIMURIUM, Strain/Indicator: TA1537, Metabolic Activation: NONE, Method: PREINCUBATION
# [5] = Test System: AMES SALMONELLA TYPHIMURIUM, Strain/Indicator: TA98, Metabolic Activation: NONE, Method: STANDARD PLATE
# [6] = Test System: AMES SALMONELLA TYPHIMURIUM, Strain/Indicator: TA100, Metabolic Activation: NONE, Method: STANDARD PLATE
compound,measurement,setting,value
CCN(CC)c1ccc2c(-c3ccccc3C(=O)O)c3ccc(=[N+](CC)CC)cc-3oc2c1,mutagenic call,"Test System: AMES SALMONELLA TYPHIMURIUM, Strain/Indicator: TA97, Metabolic Activation: HAMSTER, LIVER, S-9, AROCLOR 1254 (10%), Method: PREINCUBATION",inactive; negative
same,mutagenic call,"Test System: AMES SALMONELLA TYPHIMURIUM, Strain/Indicator: TA97, Metabolic Activation: HAMSTER, LIVER, S-9, AROCLOR 1254 (30%), Method: PREINCUBATION",inactive; negative
same,mutagenic call,"Test System: AMES SALMONELLA TYPHIMURIUM, Strain/Indicator: TA97, Metabolic Activation: NONE, Method: PREINCUBATION",inactive; negative
same,mutagenic call,"Test System: AMES SALMONELLA TYPHIMURIUM, Strain/Indicator: TA97, Metabolic Activation: RAT, LIVER, S-9, AROCLOR 1254 (10%), Method: PREINCUBATION",inactive; negative
same,mutagenic call,"Test System: AMES SALMONELLA TYPHIMURIUM, Strain/Indicator: TA97, Metabolic Activation: RAT, LIVER, S-9, AROCLOR 1254 (30%), Method: PREINCUBATION",inactive; negative
same,mutagenic call,"Test System: AMES SALMONELLA TYPHIMURIUM, Strain/Indicator: TA98, Metabolic Activation: HAMSTER, LIVER, S-9, AROCLOR 1254 (10%), Method: PREINCUBATION",inactive; negative
same,mutagenic call,"Test System: AMES SALMONELLA TYPHIMURIUM, Strain/Indicator: TA98, Metabolic Activation: HAMSTER, LIVER, S-9, AROCLOR 1254 (30%), Method: PREINCUBATION",inactive; negative
same,mutagenic call,[1],inactive; negative
same,mutagenic call,"Test System: AMES SALMONELLA TYPHIMURIUM, Strain/Indicator: TA98, Metabolic Activation: RAT, LIVER, S-9, AROCLOR 1254 (10%), Method: PREINCUBATION",inactive; negative
same,mutagenic call,"Test System: AMES SALMONELLA TYPHIMURIUM, Strain/Indicator: TA98, Metabolic Activation: RAT, LIVER, S-9, AROCLOR 1254 (30%), Method: PREINCUBATION",inactive; negative
same,mutagenic call,"Test System: AMES SALMONELLA TYPHIMURIUM, Strain/Indicator: TA98, Metabolic Activation: RAT, LIVER, S-9, BETA-NAPHTHOFLAVONE AND PHENOBARBITAL, Method: PREINCUBATION",active; positive
same,mutagenic call,"Test System: AMES SALMONELLA TYPHIMURIUM, Strain/Indicator: TA100, Metabolic Activation: HAMSTER, LIVER, S-9, AROCLOR 1254 (10%), Method: PREINCUBATION",inactive; negative
same,mutagenic call,"Test System: AMES SALMONELLA TYPHIMURIUM, Strain/Indicator: TA100, Metabolic Activation: HAMSTER, LIVER, S-9, AROCLOR 1254 (30%), Method: PREINCUBATION",inactive; negative
same,mutagenic call,[2],inactive; negative
same,mutagenic call,"Test System: AMES SALMONELLA TYPHIMURIUM, Strain/Indicator: TA100, Metabolic Activation: RAT, LIVER, S-9, AROCLOR 1254 (10%), Method: PREINCUBATION",inactive; negative
same,mutagenic call,"Test System: AMES SALMONELLA TYPHIMURIUM, Strain/Indicator: TA100, Metabolic Activation: RAT, LIVER, S-9, AROCLOR 1254 (30%), Method: PREINCUBATION",inactive; negative
same,mutagenic call,"Test System: AMES SALMONELLA TYPHIMURIUM, Strain/Indicator: TA1535, Metabolic Activation: HAMSTER, LIVER, S-9, AROCLOR 1254 (5%), Method: PREINCUBATION",inactive; negative
same,mutagenic call,"Test System: AMES SALMONELLA TYPHIMURIUM, Strain/Indicator: TA1535, Metabolic Activation: HAMSTER, LIVER, S-9, AROCLOR 1254 (10%), Method: PREINCUBATION",inactive; negative
same,mutagenic call,"Test System: AMES SALMONELLA TYPHIMURIUM, Strain/Indicator: TA1535, Metabolic Activation: HAMSTER, LIVER, S-9, AROCLOR 1254 (30%), Method: PREINCUBATION",inactive; negative
same,mutagenic call,[3],inactive; negative
same,mutagenic call,"Test System: AMES SALMONELLA TYPHIMURIUM, Strain/Indicator: TA1535, Metabolic Activation: RAT, LIVER, S-9, AROCLOR 1254 (5%), Method: PREINCUBATION",inactive; negative
same,mutagenic call,"Test System: AMES SALMONELLA TYPHIMURIUM, Strain/Indicator: TA1535, Metabolic Activation: RAT, LIVER, S-9, AROCLOR 1254 (10%), Method: PREINCUBATION",inactive; negative
same,mutagenic call,"Test System: AMES SALMONELLA TYPHIMURIUM, Strain/Indicator: TA1535, Metabolic Activation: RAT, LIVER, S-9, AROCLOR 1254 (30%), Method: PREINCUBATION",inactive; negative
same,mutagenic call,"Test System: AMES SALMONELLA TYPHIMURIUM, Strain/Indicator: TA1537, Metabolic Activation: HAMSTER, LIVER, S-9, AROCLOR 1254 (10%), Method: PREINCUBATION",inactive; negative
same,mutagenic call,[4],inactive; negative
same,mutagenic call,"Test System: AMES SALMONELLA TYPHIMURIUM, Strain/Indicator: TA1537, Metabolic Activation: RAT, LIVER, S-9, AROCLOR 1254 (10%), Method: PREINCUBATION",inactive; negative
same,mutagenic call,"Test System: AMES SALMONELLA TYPHIMURIUM, Strain/Indicator: TA1538, Metabolic Activation: NONE, Method: STANDARD PLATE",inactive; negative
same,mutagenic call,"Test System: AMES SALMONELLA TYPHIMURIUM, Strain/Indicator: TA1538, Metabolic Activation: RAT, LIVER, S-9, AROCLOR 1254, Method: STANDARD PLATE",inactive; negative
same,mutagenic call,"Test System: CHINESE HAMSTER V-79, Strain/Indicator: V-79/6-THIOGUANINE, Metabolic Activation: NONE, Method: SUSPENSION/PLATE",inactive; negative
same,mutagenic call,"Test System: CHINESE HAMSTER V-79, Strain/Indicator: V-79/6-THIOGUANINE, Metabolic Activation: RAT, LIVER, S-9, PHENOBARBITAL AND BETA-NAPHTHOFLAVONE, Method: SUSPENSION/PLATE",inactive; negative
CC1(C)C[C@@H]2[C@@]34C[C@]3(C(C=O)=C[C@]2(O)C1)[C@@H](O)OC4=O,mutagenic call,[5],active; positive
same,mutagenic call,[6],active; positive
same,mutagenic call,"Test System: AMES SALMONELLA TYPHIMURIUM, Strain/Indicator: TA2637, Metabolic Activation: NONE, Method: STANDARD PLATE",active; positive
O=C(NCc1ccccc1)C(Cl)c1ccccc1 (stereo unspecified),mutagenic call,"Test System: AMES SALMONELLA TYPHIMURIUM, Strain/Indicator: TA100, Metabolic Activation: MOUSE, LIVER, S-9, AROCLOR 1254, Method: STANDARD PLATE",inactive; negative
same,mutagenic call,[6],active; positive
c1ccc2c(c1)ncc1cnc3ccccc3c12,mutagenic call,[5],inactive; negative
same,mutagenic call,"Test System: AMES SALMONELLA TYPHIMURIUM, Strain/Indicator: TA98, Metabolic Activation: RAT LIVER S-9, AROCLOR 1254, Method: STANDARD PLATE",inactive; negative
same,mutagenic call,"Test System: E.COLI, Strain/Indicator: WP2, Metabolic Activation: NONE, Method: SPOT TEST",inactive; negative
same,mutagenic call,"Test System: E.COLI, Strain/Indicator: WP2 UVRA, Metabolic Activation: NONE, Method: STANDARD PLATE",inactive; negative
same,mutagenic call,"Test System: E.COLI, Strain/Indicator: WP2 UVRA, Metabolic Activation: R, L, S-9, AROCLOR 1254, Method: STANDARD PLATE",inactive; negative
same,mutagenic call,"Test System: ESCHERICHIA COLI, Strain/Indicator: WP2 UVR A, Metabolic Activation: NONE, Method: STANDARD PLATE",inactive; negative
same,mutagenic call,"Test System: ESCHERICHIA COLI, Strain/Indicator: WP2 UVR A, Metabolic Activation: RAT LIVER S-9, AROCLOR 1254, Method: STANDARD PLATE",inactive; negative
CC(C)N=C(NC(C)C)OCc1ccc([N+](=O)[O-])cc1,mutagenic call,[1],active; positive
same,mutagenic call,"Test System: AMES SALMONELLA TYPHIMURIUM, Strain/Indicator: TA98, Metabolic Activation: RAT, LIVER, S-9, PCB, Method: PREINCUBATION",active; positive
same,mutagenic call,[2],active; positive
same,mutagenic call,"Test System: AMES SALMONELLA TYPHIMURIUM, Strain/Indicator: TA100, Metabolic Activation: RAT, LIVER, S-9, PCB, Method: PREINCUBATION",active; positive
C[C@H]1SC[C@@H](C(=O)N[C@@H](Cc2cnc[nH]2)C(=O)N2CCC[C@H]2C(N)=O)NC1=O,mutagenic call,[1],inactive; negative
same,mutagenic call,"Test System: AMES SALMONELLA TYPHIMURIUM, Strain/Indicator: TA98, Metabolic Activation: RAT, LIVER, S-9, AROCLOR 1254, Method: PREINCUBATION",inactive; negative
same,mutagenic call,[2],inactive; negative
same,mutagenic call,"Test System: AMES SALMONELLA TYPHIMURIUM, Strain/Indicator: TA100, Metabolic Activation: RAT, LIVER, S-9, AROCLOR 1254, Method: PREINCUBATION",inactive; negative
same,mutagenic call,[3],inactive; negative
same,mutagenic call,"Test System: AMES SALMONELLA TYPHIMURIUM, Strain/Indicator: TA1535, Metabolic Activation: RAT, LIVER, S-9, AROCLOR 1254, Method: PREINCUBATION",inactive; negative
same,mutagenic call,[4],inactive; negative
same,mutagenic call,"Test System: AMES SALMONELLA TYPHIMURIUM, Strain/Indicator: TA1537, Metabolic Activation: RAT, LIVER, S-9, AROCLOR 1254, Method: PREINCUBATION",inactive; negative
same,mutagenic call,"Test System: E. COLI, Strain/Indicator: WP2 UVRA, Metabolic Activation: NONE, Method: PREINCUBATION",inactive; negative
same,mutagenic call,"Test System: E. COLI, Strain/Indicator: WP2 UVRA, Metabolic Activation: RAT, LIVER, S-9, AROCLOR 1254, Method: PREINCUBATION",inactive; negative
